We go through 25 compounds from patent US8420675B2, “Aminotetrahydroindazoloacetic acids” (Hoffmann-La Roche Inc., priority 2008, dated 2013).

As a reminder, the pIC50 is the IC50 on a negative log10 scale, so that one unit is a factor of ten. Higher therefore signals a low IC50.

pIC50: −log10 of the molar value.

This experiment has as its target T1, human CRTH2 (Homo sapiens, UniProt Q9Y5Y4).
T1 construct: expressed in transfected cells
T1 sequence (Q9Y5Y4 1-395): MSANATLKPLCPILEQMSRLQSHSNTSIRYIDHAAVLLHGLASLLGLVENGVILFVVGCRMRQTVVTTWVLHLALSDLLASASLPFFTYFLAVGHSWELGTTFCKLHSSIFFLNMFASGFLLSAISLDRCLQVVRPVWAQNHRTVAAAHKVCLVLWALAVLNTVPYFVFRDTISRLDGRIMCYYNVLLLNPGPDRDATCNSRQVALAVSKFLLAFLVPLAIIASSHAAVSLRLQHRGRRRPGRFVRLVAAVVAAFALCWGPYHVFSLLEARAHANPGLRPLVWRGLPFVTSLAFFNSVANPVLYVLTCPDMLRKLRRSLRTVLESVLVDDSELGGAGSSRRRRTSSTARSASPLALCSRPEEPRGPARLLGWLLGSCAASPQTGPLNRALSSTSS
Kind of experiment: Human CRTH2 Receptor Binding Assay (whole cell, [3H]ramatroban competition). The following applies: CHO-K1 cells expressing human CRTH2 and G-alpha16; 20 nM [3H]ramatroban; 1 hour, room temperature. The source says:
A whole cell receptor binding assay using [^3H]ramatroban as the competing radioactive ligand was employed to evaluate the compound binding activity to human CRTH2. The radioactive ligand [^3H]ramatroban was synthesized according to Sugimoto et. al. (Eur. J. Pharmacol. 524, 30-37, 2005) to a specific activity of 42 Ci/mmol.
A cell line stably expressing human CRTH2 was established by transfecting CHO-K1 cells with two mammalian expression vectors that harbored human CRTH2 and G-alpha16 cDNAs, respectively, using FuGene® 6 transfection reagent (from Roche). Stable clones expressing CRTH2 were selected by staining each clone with BM16 (BD Pharmingen™ from BD Biosciences, a division of Becton, Dickinson and Company), which is a rat monoclonal antibody to human CRTH2. The cells were maintained as monolayer cultures in Ham's F-12 medium containing 10% fetal bovine serum, 100 units/mL penicillin, 100 μg/mL streptomycin, 2 mM glutamine, 0.5 mg/mL G418 (geneticin) for CRTH2, and 0.2 mg/mL hygromycin-B (for G-alpha 16). For whole cell receptor binding assay, the monolayer cells were rinsed once with PBS (phosphate buffered saline), dissociated using ethylenediaminetetraacetate (Versene™ EDTA Lonza Inc.), and suspended in PBS containing 10 mM MgCl2 and 0.06% BSA (bovine serum albumin) at 1.5×10^6 cells/mL.
The binding reactions (0.2 mL) were performed in 96-well plates at room temperature in PBS containing 1.5×10^5 cells, 10 mM MgCl2, 0.06% BSA, 20 nM [^3H]ramatroban, and test compound at various concentrations. After 1 hour of binding reactions, the cells were harvested on GF™/B filter microplates (microtiter plates with embedded glass fiber from PerkinElmer, Inc.) and washed 5 times with PBS using a Filtermate™ Harvester (a cell harvester that harvests and washes cells from microplates from PerkinElmer, Inc.). The radioactivities bound to the cells were determined using a microplate scintillation counter (TopCount® NXT, from PerkinElmer, Inc.) after adding 50 μL of Microscint™ 20 scintillation fluid (from PerkinElmer, Inc.) to each well of the filter plates. The radioactivity from non-specific binding was determined by replacing compound with 10 μM of 15(R)-15-methyl PGD2 (from Cayman Chemical Company) in the reaction mixtures. The radioactivity bound to the cells in the absence of compound (total binding) was determined by replacing compound with 0.25% of DMSO (dimethyl sulfoxide) in the reaction mixture. Specific binding data were obtained by subtracting the radioactivity of non-specific binding from each binding data.
The IC50 value is defined as the concentration of the tested compound that is required for 50% inhibition of total specific binding. In order to calculate the IC50 value, the percent inhibition data were determined for 7 concentrations for each compound. The percent inhibition for a compound at each concentration was calculated according to the following formula, [1-(specific binding in the presence of compound)/(total specific binding)]x100. The IC50 value was then obtained by fitting the percent inhibition data to a sigmoidal dose-response (4 parameter logistic) model in the XLfit® software Excel add-in program [from ID Business Solutions Ltd., model 205, where F(x)=(A+(B−A)/(1+((C/x)^D)))].
With `O=C(O)CCn1ncc2c1CCCC2NS(=O)(=O)c1ccc(-c2ccccc2)cc1` (single isomer, unassigned) [Example 10-30a, 3-[4-(biphenyl-4-sulfonylamino)-4,5,6,7-tetrahydro-indazol-1-yl]-propionic acid], the pIC50 was 8.25.
The compound `O=C(O)Cn1ncc2c1CCC[C@H]2NS(=O)(=O)c1ccc(Oc2ccccc2Cl)cc1` [Example 1-1a, {(R)-4-[4-(2-Chloro-phenoxy)-benzenesulfonylamino]-4,5,6,7-tetrahydro-indazol-1-yl}-acetic acid] showed a pIC50 of 7.56.
On to `O=C(O)Cn1ncc2c1CCC[C@H]2NS(=O)(=O)c1ccc(-c2ccccc2)cc1` [Example 1-2a, [(R)-4-(Biphenyl-4-sulfonylamino)-4,5,6,7-tetrahydro-indazol-1-yl]-acetic acid], for which the pIC50 was 7.03.
On to `O=C(O)Cn1ncc2c1CCCC2NS(=O)(=O)c1ccc(Oc2ccccc2)cc1` (stereo not shown) [Example 1-3a, [4-(4-Phenoxy-benzenesulfonylamino)-4,5,6,7-tetrahydro-indazol-1-yl]-acetic acid], for which the negative-log IC50 (pIC50) was 6.70. Compared with the last compound, the pIC50 is 0.33 log units lower.
The same measure for `Cc1nnc(-c2cccc(S(=O)(=O)NC3CCCc4c3cnn4CC(=O)O)c2)o1` (stereo not shown) [Example 1-4a, {4-[3-(5-Methyl-[1,3,4]oxadiazol-2-yl)-benzenesulfonylamino]-4,5,6,7-tetrahydro-indazol-1-yl}-acetic acid]: 6.61; for `O=C(O)Cn1ncc2c1CCCC2NS(=O)(=O)c1cccc(Oc2ccccc2)c1` (stereo not shown) [Example 1-5a, [4-(3-Phenoxy-benzenesulfonylamino)-4,5,6,7-tetrahydro-indazol-1-yl]-acetic acid]: 6.79; for `O=C(O)CCn1ncc2c1CCCC2NS(=O)(=O)c1ccc(-c2ccccc2)cc1` (stereo not shown) [Example 1-6a, 3-[4-(Biphenyl-4-sulfonylamino)-4,5,6,7-tetrahydro-indazol-1-yl]-propionic acid]: 6.32.
With `O=C(O)Cn1ncc2c1CCCC2NS(=O)(=O)c1cnc(Oc2ccc(Cl)cc2)c(Br)c1` (stereo not shown) [Example 2-1a, {4-[5-Bromo-6-(4-chloro-phenoxy)-pyridine-3-sulfonylamino]-4,5,6,7-tetrahydro-indazol-1-yl}-acetic acid] the figure was 8.14; with `O=C(O)Cn1ncc2c1CCCC2NS(=O)(=O)c1cnc(Oc2ccc(F)cc2)c(Br)c1` (stereo not shown) [Example 2-2a, {4-[5-Bromo-6-(4-fluoro-phenoxy)-pyridine-3-sulfonylamino]-4,5,6,7-tetrahydro-indazol-1-yl}-acetic acid], 7.51; with `O=C(O)Cn1ncc2c1CCCC2NS(=O)(=O)c1cnc(Oc2cccc(Cl)c2)c(Br)c1` (stereo not shown) [Example 2-3a, {4-[5-Bromo-6-(3-chloro-phenoxy)-pyridine-3-sulfonylamino]-4,5,6,7-tetrahydro-indazol-1-yl}-acetic acid], 7.71.
In the case of `N#Cc1ccc(Oc2ncc(S(=O)(=O)NC3CCCc4c3cnn4CC(=O)O)cc2Br)cc1` (stereo not shown) [Example 2-4a, {4-[5-Bromo-6-(4-cyano-phenoxy)-pyridine-3-sulfonylamino]-4,5,6,7-tetrahydro-indazol-1-yl}-acetic acid], the pIC50 was 7.99.
With `CS(=O)(=O)c1ccc(Oc2ncc(S(=O)(=O)NC3CCCc4c3cnn4CC(=O)O)cc2Br)cc1` (stereo not shown) [Example 2-5a, {4-[5-Bromo-6-(4-methanesulfonyl-phenoxy)-pyridine-3-sulfonylamino]-4,5,6,7-tetrahydro-indazol-1-yl}-acetic acid] the figure was 7.00; with `Cc1ccc(Oc2ncc(S(=O)(=O)NC3CCCc4c3cnn4CC(=O)O)cc2Br)cc1` (stereo not shown) [Example 2-6a, [4-(5-Bromo-6-p-tolyloxy-pyridine-3-sulfonylamino)-4,5,6,7-tetrahydro-indazol-1-yl]-acetic acid], 7.58.
The same measure for `O=C(O)Cn1ncc2c1CCCC2NS(=O)(=O)c1cnc(Oc2ccc(C(F)(F)F)cc2)c(Br)c1` (stereo not shown) [Example 2-7a, {4-[5-Bromo-6-(4-trifluoromethyl-phenoxy)-pyridine-3-sulfonylamino]-4,5,6,7-tetrahydro-indazol-1-yl}-acetic acid]: 6.41.
Regarding `O=C(O)Cn1ncc2c1CCC[C@H]2NS(=O)(=O)c1cnc(Oc2ccc(Cl)cc2)c(Br)c1` [Example 2-8a, {(R)-4-[5-Bromo-6-(4-chloro-phenoxy)-pyridine-3-sulfonylamino]-4,5,6,7-tetrahydro-indazol-1-yl}-acetic acid], the negative logarithm of the IC50 (pIC50) is 8.11. This pIC50 lies 1.70 log units higher than the previous one.
Consider `O=C(O)Cn1ncc2c1CCC[C@H]2NS(=O)(=O)c1cnc(Oc2ccccc2Cl)c(Br)c1` [Example 2-9a, {(R)-4-[5-Bromo-6-(2-chloro-phenoxy)-pyridine-3-sulfonylamino]-4,5,6,7-tetrahydro-indazol-1-yl}-acetic acid], for which the pIC50 was 8.08.
The same measure for `O=C(O)Cn1ncc2c1CCCC2NS(=O)(=O)c1cnc(Oc2ccc(F)c(F)c2)c(Br)c1` (stereo not shown) [Example 2-10a, {4-[5-Bromo-6-(3,4-difluoro-phenoxy)-pyridine-3-sulfonylamino]-4,5,6,7-tetrahydro-indazol-1-yl}-acetic acid]: 6.71.
`O=C(O)CCn1ncc2c1CCC[C@H]2NS(=O)(=O)c1cnc(Oc2ccccc2Cl)c(Br)c1` [Example 2-11a, 3-{(R)-4-[5-Bromo-6-(2-chloro-phenoxy)-pyridine-3-sulfonylamino]-4,5,6,7-tetrahydro-indazol-1-yl}-propionic acid] had a pIC50 of 7.74.
The same measure for `O=C(O)CCn1ncc2c1CCC[C@H]2NS(=O)(=O)c1cnc(Oc2ccc(Cl)cc2)c(Br)c1` [Example 2-12a, 3-{(R)-4-[5-Bromo-6-(4-chloro-phenoxy)-pyridine-3-sulfonylamino]-4,5,6,7-tetrahydro-indazol-1-yl}-propionic acid]: 7.52; for `Cc1cc(S(=O)(=O)NC2CCCc3c2cnn3CC(=O)O)cnc1Oc1ccc(Cl)cc1` (stereo not shown) [Example 3-1a, {4-[6-(4-Chloro-phenoxy)-5-methyl-pyridine-3-sulfonylamino]-4,5,6,7-tetrahydro-indazol-1-yl}-acetic acid]: 7.46; for `O=C(O)Cn1ncc2c1CCCC2NS(=O)(=O)c1ccc(Oc2ccc(F)cc2)nc1` (stereo not shown) [Example 4-1a, {4-[6-(4-Fluoro-phenoxy)-pyridine-3-sulfonylamino]-4,5,6,7-tetrahydro-indazol-1-yl}-acetic acid]: 6.80.
The same measure for `O=C(O)Cn1ncc2c1CCC[C@H]2NS(=O)(=O)c1ccc(Oc2ccccc2Cl)c(Cl)c1` [Example 5-1a, {(R)-4-[3-Chloro-4-[2-chloro-phenoxy)-benzenesulfonylamino]-4,5,6,7-tetrahydro-indazol-1-yl}-acetic acid]: 7.84; for `O=C(O)Cn1ncc2c1CCCC2NS(=O)(=O)c1ccc(Oc2cccc(Cl)c2)cc1` (stereo not shown) [Example 5-2a, {4-[4-(3-Chloro-phenoxy)-benzenesulfonylamino]-4,5,6,7-tetrahydro-indazol-1-yl}-acetic acid]: 6.69.
The same measure for `O=C(O)Cn1ncc2c1CCCC2NS(=O)(=O)c1ccc(Oc2ccc(Cl)cc2)cc1` (stereo not shown) [Example 5-3a, {4-[4-(4-Chloro-phenoxy)-benzenesulfonylamino]-4,5,6,7-tetrahydro-indazol-1-yl}-acetic acid]: 7.22; for `O=C(O)Cn1ncc2c1CCCC2NS(=O)(=O)c1cc(Oc2ccccc2)cc(C(F)(F)F)c1` (stereo not shown) [Example 5-4a, [4-(3-Phenoxy-5-trifluoromethyl-benzenesulfonylamino)-4,5,6,7-tetrahydro-indazol-1-yl]-acetic acid]: 7.44.
